Experiment [1] relates to EGFR L858R/C797S Ba/F3 cells. As to the kind of experiment: Ba/F3 cell proliferation (Cell Titer Glo), EGFR L858R/C797S. It is filed as cell-based, murine. Conditions: Mus musculus, BaF3, Ba/F3 cells with EGFR L858R/C797S, 72 hours exposure, read-out: L/C797S. From the text: (§1) The EGFR mutant L858R Ba/F3 cells have been previously described (Zhou, W., et al. Nature 462, 2009, 1070-1074). The EGFR C797S and C775S mutations were introduced via site directed mutagenesis using the Quick Change Site-Directed Mutagenesis kit into a vector containing EGFR […] mutation (Stratagene; La Jolla, CA) according to the manufacturer’s instructions. All constructs were confirmed by DNA sequencing. The constructs were then shuttled into the retroviral vector JP1540 by either using the Cre-recombination system (Agilent Technologies, Santa Clara, CA) or the In-fusion HD Cloning kit (Takara Bio USA, Inc.; Mountain view, CA). Ba/F3 cells were then infected with retrovirus per standard protocols, as described previously (Zhou, et al, Nature 2009). […]
(§2) Growth and inhibition of growth was assessed by the Cell Titer Glo assay (Promega, Madison, WI) and was performed according to the manufacturer’s instructions. The Cell Titer Glo assay is a luminescence-based method used to determine the number of viable cells based on quantitation of the ATP present, which is directly proportional to the amount of metabolically active cells present. Ba/F3 cells of different EGFR genotypes were exposed to compounds for 72 hours and the number of cells used per experiment was determined empirically as has been previously established (Zhou, et al., Nature 2009). […]
In general terms: ATP-based viability assays read luminescence as a measure of living cells.

Experiment [2] relates to EGFR mutant L858R Ba/F3 cells. As to the kind of experiment: Ba/F3 cell proliferation (Cell Titer Glo), EGFR L858R. Type of experiment: cell-based, murine. The conditions noted are these: Mus musculus, BaF3, Ba/F3 cells with EGFR L858R, 72 hours exposure, read-out: L BaF3.
Text: as §1, §2

Take `C=CC(=O)Nc1cc(C(=O)Nc2nc3cccc(C)c3n2[C@@H]2CCCCN(C(=O)C=C)C2)cs1` [compound 001]: the EC50 in experiment [1] is 334 nM; in experiment [2] it was 6 nM.

The record behind these values is US20230339922A1, “COVALENT EGFR INHIBITORS AND METHODS OF USE THEREOF” (DANA-FARBER CANCER INSTITUTE, INC., priority 2020, published 2023).
